The NIST ThermoML archive (doi:10.1021/acs.jced.7b00722)
Numbers after ± are expanded uncertainties.

Tests used:
[1] = wn = mass fraction of the nth substance listed; details: 298.15 K, 100 kPa, Liquid; for viscosity: Falling or rolling sphere viscometry; for mass density: Vibrating tube method
[2] = refractive index (Na D-line) (dimensionless); wn = mass fraction of the nth substance listed; details: 298.15 K, 100 kPa, Liquid, Standard Abbe refractometry
[3] = 298.15 K; 100 kPa; Liquid; Falling or rolling sphere viscometry
[4] = refractive index (Na D-line) (dimensionless); details: 298.15 K; 100 kPa; Liquid; Standard Abbe refractometry

O=C([O-])[C@H](O)[C@@H](O)C(=O)[O-].[K+].[K+] [dipotassium L-tartrate] + O
Details	mass density, [1] [kg/m3]	refractive index, [2]	viscosity, [1] [mPa·s]
w1 = 0.02	1006 ± 11	1.3345 ± 0.0024	0.929 ± 0.037
w1 = 0.04	1019.6 ± 14	1.3374 ± 0.0029	0.965 ± 0.037
w1 = 0.06	1033.3 ± 14	1.3403 ± 0.0029	0.998 ± 0.039
w1 = 0.08	1046.9 ± 14	1.3432 ± 0.0029	1.04 ± 0.048
w1 = 0.1	1060.6 ± 14	1.3461 ± 0.0029	1.09 ± 0.045
w1 = 0.15	1094.7 ± 14	1.3533 ± 0.0029	1.191 ± 0.047
w1 = 0.2	1128.9 ± 14	1.3606 ± 0.0029	1.313 ± 0.056
w1 = 0.25	1163 ± 14	1.3678 ± 0.0029	1.46 ± 0.058
w1 = 0.3	1197.1 ± 14	1.375 ± 0.0029	1.59 ± 0.064
w1 = 0.4	1265.4 ± 14	1.3895 ± 0.0029	1.91 ± 0.068

O [water]
Details	refractive index	viscosity [mPa·s]
[3]	–	0.894 ± 0.011
[4]	1.3327 ± 0.0004	–

O [water] + O=C([O-])[C@H](O)[C@@H](O)C(=O)[O-].[K+].[K+]
w2 = 0
Details	refractive index	viscosity [mPa·s]
[1]	–	0.894 ± 0.011
[2]	1.3327 ± 0.0004	–
